Assay results taken from patent publication US5395947A, “Platinum(II) complex and processes for preparing the same” (Sunkyong Industries, Ltd., priority 1991, dated 1995).

What was measured:
[1] = test system: murine leukemia L1210 cells; assay: Growth inhibition test on cultured murine leukemia L1210 cells; type: cell-based; conditions: 48 hours, 37° C., Trypan blue viability
Method in brief: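 Read-out is Trypan blue (0.17%) viability versus compound-free controls. Cells, 1×10^5, were cultured 48 h at 37° C under 5% CO2 in RPMI 1640/10% FCS containing various compound concentrations.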

murine leukemia L1210 = assay: Antitumor activity test on murine leukemia L1210 in vivo; parameters: species or system male BDF1 mice; conditions: days 1, 5, 9
Method in brief: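 Male BDF1 mice (6 weeks, 21±3 g; n=7) received 1×10^6 leukemia cells into the peritoneum on day 0, then test compound suspended or dissolved in 0.5% CMC i.p. on days 1, 5, 9. Activity expressed as T/C %, mean survival treated versus 0.5% CMC-injected controls.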

[2] = Test for water solubility; type: physicochemical; conditions: water
Description: 3. Test for water solubility
A standard plot of UV absorbance(220 nm) vs. concentration was made; and employed to determine water-solubility.
The mixture was then passed through a 0.45 micron disposable membrane filter before dilution and UV measurement.

ICR mice = assay: Acute toxicity test; type: in vivo; parameters: Lethality: unit not given here; conditions: for Lethality: 10080 min
Method in brief: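 Single i.p. administration to ICR mice (7 weeks old, both sexes, n=6/group); appearance and mortality logged over 7 days, dead animals autopsied for gross pathology.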

Test for nephrotoxicity = type: in vivo, male ICR mice; conditions: 75.0 mg/kg i.p. once
Description: 4. Test for nephrotoxicity
The compounds of the present invention were dissolved or suspended in 0.5% CMC solution(in water) and were administered intraperitoneally one time to 8-week-old male ICR mice weighing 30±3 g. Each treatment and control groups consisted of six mice.
The administration amount of the test compound was 1.5 times the optimum dose obtained in Table 2, or more. On days 1, 4 and 8 after administration, their blood was collected under ether anesthesia for measurement of blood urea nitrogen concentration (BUN value) and creatinine concentration.
A pair of kidneys were taken and, after immediate weighing, were stored in a 10% neutral buffered formalin solution. The body weight ratio shown in Table 5 is a ratio of the body weight measured on days 1, 4 and 8 from the administration of the compound to the body weight measured on the administration day.

## O=C1[O][Pt-2]2([NH2+]CC3OC4(CCCC4)OC3C[NH2+]2)[O]C(=O)C12CCC2 [Example 30, cis-cyclobutane-1,1-dicarboxylato[(4R,5R)-4,5-bis(aminomethyl)-1,3-dioxolane-2-spiro-1'-cyclopentane]platinum(II)]
[1]
  IC50 (concentration required for 50% inhibition of growth): 0.55 µg/mL
Murine leukemia L1210; 6.2 mg/kg i.p.
  T/C (%): 109%
Murine leukemia L1210; 12.5 mg/kg i.p.
  T/C (%): 122%
Murine leukemia L1210; 25 mg/kg i.p.
  T/C (%): 110%
Murine leukemia L1210; 50 mg/kg i.p.
  T/C (%): 148%
Murine leukemia L1210; 100 mg/kg i.p.
  T/C (%): 185%
[2]
  Solubility in water: 1900 µg/mL
ICR mice; female, 94 mg/kg i.p.
  Number of dead mice for 7 days: 0/6
  Number of dead mice, 1st day: 0/6
ICR mice; female, 123 mg/kg i.p.
  Number of dead mice for 7 days: 0/6
  Number of dead mice, 1st day: 0/6
ICR mice; female, 160 mg/kg i.p.
  Number of dead mice for 7 days: 1/6
  Number of dead mice, 1st day: 0/6
  Number of dead mice, 5th day: 1/6
  Lethality: 16.7
ICR mice; female, 208 mg/kg i.p.
  Number of dead mice for 7 days: 4/6
  Number of dead mice, 1st day: 0/6
  Number of dead mice, 3rd day: 2/6
  Number of dead mice, 4th day: 2/4
  Lethality: 66.7
ICR mice; female, 270 mg/kg i.p.
  Number of dead mice for 7 days: 6/6
  Number of dead mice, 1st day: 0/6
  Number of dead mice, 2nd day: 4/6
  Number of dead mice, 3rd day: 2/2
  Lethality: 100.0
ICR mice; male, 94 mg/kg i.p.
  Number of dead mice for 7 days: 0/6
  Number of dead mice, 1st day: 0/6
ICR mice; male, 123 mg/kg i.p.
  Number of dead mice for 7 days: 0/6
  Number of dead mice, 1st day: 1/6
ICR mice; male, 160 mg/kg i.p.
  Number of dead mice for 7 days: 1/6
  Number of dead mice, 1st day: 0/6
  Number of dead mice, 4th day: 1/6
  Lethality: 16.7
ICR mice; male, 208 mg/kg i.p.
  Number of dead mice for 7 days: 5/6
  Number of dead mice, 1st day: 1/6
  Number of dead mice, 2nd day: 1/6
  Number of dead mice, 3rd day: 3/5
  Lethality: 83.3
ICR mice; male, 270 mg/kg i.p.
  Number of dead mice for 7 days: 6/6
  Number of dead mice, 1st day: 0/6
  Number of dead mice, 2nd day: 2/6
  Number of dead mice, 3rd day: 4/4
  Lethality: 100.0

## CCC1(CC)OC2C[NH2+][Pt-2]3([NH2+]CC2O1)[O]C(=O)CC(=O)[O]3 [Example 37, cis-malonato[(4R,5R)-4,5-bis(aminomethyl)-2,2-diethyl-1,3-dioxolane]platinum(II)]
[1]
  IC50 (concentration required for 50% inhibition of growth): 0.42 µg/mL
Murine leukemia L1210; 12.5 mg/kg i.p.
  T/C (%): 130%
Murine leukemia L1210; 25 mg/kg i.p.
  T/C (%): 180%
Murine leukemia L1210; 50 mg/kg i.p.
  T/C (%): 231%
Test for nephrotoxicity
  BUN, 1st day: 27.5 mg/100 ml
  BUN, 4th day: 26.4 mg/100 ml
  BUN, 8th day: 28.4 mg/100 ml
